Measured values as given in patent US6686388B2, “Regulators of the hedgehog pathway, compositions and uses related thereto” (priority 1999, dated 2004).
Like-named read-outs stand apart in the source and are kept apart here.

Legend:
[1] = test system: medulloblastoma tumor cells; assay type: cell-based, mouse
Protocol: These medulloblastoma cells were derived from tumors that arose in the brains of mice heterozygous for an inactivating mutation in the ptc gene (“heterozygous ptc knockout mice”). Mutation of ptc leads to inappropriate activation of the Hh signaling pathway, and in these ptc knockout mice, the ptc mutation results in the occurrence of medulloblastomas. The medulloblastoma tumor cells were placed into primary culture in neuronal culture medium (Basal Medium of Eagle, with 10% calf serum, 25 mM KCl, and 2 mM glutamine). Cells were typically seeded at 0.5 or 1.0×10^6 cells/well of a 24 well plate, in 0.5 ml of medium per well. […] From 2-3 DIV, bromodeoxyuridine (BrdU) was added to the cultures, to label proliferating cells. On 3 DIV, cells were fixed with paraformaldehyde. […] The numbers of total and BrdU(+) cells were then scored in multiple fields in wells of each condition, to determine the percent proliferating cells under different treatments. The scorer was blinded as to the treatments of the cells.
(§1) To determine the effects of cAMP agonist drugs on the Hedgehog (Hh) signaling pathway in tumor cells, medulloblastoma cells were grown in primary culture. These medulloblastoma brain tumors arose in mice heterozygous for an inactivating mutation in the ptc-1 gene (“heterozygous ptc knockout mice”). Mutation of ptc-1 leads to inappropriate activation of the Hh signaling pathway, and in these ptc-1 knockout mice, the ptc-1 mutation results in the occurrence of medulloblastoma. The medulloblastoma tumor cells were placed into primary culture in neuronal culture medium (Basal Medium of Eagle, with 10% serum, 25 mM KCl, and 2 mM glutamine). Cells were typically seeded at 0.5 or […] cells/well of a 24 well plate, in 0.5 ml of medium. One day after seeding (i.e., on 1 day in vitro, or DIV), cells were treated with forskolin (50 μM final), or an equal amount of vehicle (0.1% DMSO). On 3 DIV, RNA was isolated from the cells, and the expression of the Hh-response gene gli-1 was determined by RT-PCR analysis.
In order to test the effects of cAMP agonists on the proliferation of Hh-pathway tumor cells, primary medulloblastoma cell cultures were similarly treated with forskolin or control vehicle. From 2-3 DIV, bromodeoxyuridine (BrdU) was then added to the cultures, to label proliferating cells. On 3 DIV, cells were fixed with paraformaldehyde. […] The number of total and BrdU(+) cells were then scored in multiple fields in wells of each condition, to determine the percent proliferating cells under different treatments. The scorer was blinded as to the treatments of the cells.

[2] = test system: basal cell carcinoma tissue; test: subcutaneous injection near basal cell carcinoma, histology; assay type: in vivo, mouse; details: subcutaneous near the tumor, once a day, 21 days
Protocol: Experiments were conducted to determine the effect of cAMP elevating agents on basal cell carcinoma tissue. A solution of forskolin (50 mM) in ethanol was diluted 1:2 with cremophor (resulting in 50% ethanol/50% cremophor), then diluted 1:5 with PBS or normal saline (resulting in final 10% ethanol/10% cremophor/80% PBS or saline. The solution was administered by subcutaneous injection at different sites near the tumor (e.g., within a few millimeters of the margin), but not into the tumor itself. Treatment continued once a day every 24 hours for 21 days, 1 μl compound/g weight. After treatment, tumor size was measured, and the tumor was removed and analyzed by histology to determine morphological changes. Untreated BCC tissue is depicted in FIG. 16, and forskolin-treated tissue is depicted in FIGS. 17-18.

[3] = test system: gli-1; test: gli-1 expression by RT-PCR in primary medulloblastoma cells; assay type: cell-based, mouse; details: 50 μM, RNA on 3 DIV
Protocol: as §1

[4] = test system: Hh signaling; test: Xgal staining of subcutaneous medulloblastoma tumors after drug infusion; assay type: in vivo, mouse; details: tumor infusion for several days, compared to control (water)
From the text: (§2) To determine whether Hh signaling inhibitors can inhibit tumor growth in vivo, medulloblastoma cells from ptc-1 knockout mice were transplanted subcutaneously into athymic (“nude”) mice. After allowing time for the tumor cells to grow at the injection site, the transplanted mice were divided into groups, and treated with either control vehicle, or cAMP agonist drugs. In one set of experiments, tumors were infused with either H-forskolin, or water as a control. After several days of drug infusion, the mice were sacrificed, and the tumors were sectioned for histology. The transplanted medulloblastoma cells from the ptc knockout mice contain a lacZ transgene (encoding β-galactosidase), the expression of which is induced by Hh signaling. Therefore, the level of β-galactosidase in these cells indicates their level of […] signaling. Thus, in order to determine how effectively the infused drug inhibited Hh signaling in the tumor, the tumor sections were stained for β-galactosidase activity using the substrate Xgal, which stains expressing cells blue.

[5] = test system: hair follicle development; test: topical application on newborn Ptc-lacZ mice, skin histology; assay type: in vivo, mouse; details: 5 mM in DMSO topical, twice a day, 7 days
Protocol: This effect may be due to the inhibition of the Hh pathway by forskolin, as the Hh pathway plays a critical role in hair follicle development (FIG. 14). Postnatal day 2 mouse pups were used for this experiment. For each pup, 5 μl of DMSO or forskolin in DMSO (5 mM) was applied on the center of the back using a micro-pipette tip. The same procedure is repeated twice, with a total of […] compound applied each time. The procedure was performed on the same animal twice a day for a period of 7 days. The pups were then sacrificed and the skin was taken from the applied area for histology analysis. H&E staining was performed on the paraffin embedded sections.

[6] = test system: medulloblastoma cells; test: tritiated thymidine incorporation assay in medulloblastoma cells; assay type: cell-based, mouse; details: typical assay
Protocol: In order to test the effects of cAMP agonists on the proliferation of Hh-pathway tumor cells, primary medulloblastoma cell cultures were similarly treated with forskolin or control vehicle. From 2-3 DIV, bromodeoxyuridine (BrdU) was then added to the cultures, to label proliferating cells. On 3 DIV, cells were fixed with paraformaldehyde. Cells were then immunostained with an antibody to BrdU to identify cells that had been proliferating, and counterstained with bisbenzimide to determine total cell number. The number of total and BrdU(+) cells were then scored in multiple fields in wells of each condition, to determine the percent proliferating cells under different treatments. The scorer was blinded as to the treatments of the cells. […] Similar results were obtained when proliferation was measured using a tritiated thymidine incorporation assay, and other cAMP agents were also found to be effective.

[7] = test system: hair follicles; test: hydron pellet implantation into ptc-1 lacZ skin punches, 8 days of culture; assay type: cell-based, mouse; details: implanted pellets, Shh supplied with the culture medium
Protocol: FIG. 19 depicts hydron pellet implantation into 3-day mouse ptc-1 lacZ skin punches after 8 days of culture. Ethanol, hydron polymer, and Shh or forskolin in PBS, respectively, were mixed according to the manufacturer's instructions, poured in 2 mm pellet casts and dried/UV-irradiated over night. Alternatively, 3 mg/ml of octylated Shh protein was added to the culture medium (on day 1, 3 and 5) for the medium control as well as the forskolin-pellet implant. 3-day-old skin was harvested from the backs of mouse pups transgenic for ptc-1 lacZ, as identified by lacZ reporter detection using tails, by standard procedures. 6 mm skin punches were taken using Miltex skin punches and incubated for 60 min. Pellets were inserted by carefully separating the dermal from the epidermal layer using forceps. Cultures were grown for 8 days, fixed in lacZ fixative according to standard protocols, rinsed and stained for lacZ over night at 37° C.
Results: (A) Untreated control, showing a small number of short hairs. […] Hair length and thickness of the dermis thickness are increased as well. Ptc-lacZ, a reporter gene indicative of Shh signaling is induced in follicular as well as basal cells (blue stain), although partially obscured by melanin. […] Note the highly localized area of follicle induction, corresponding to the area adjacent to bead insertion. […]

[8] = test system: medulloblastoma cells from ptc-1 knockout mice; test: growth of subcutaneous-transplanted medulloblastoma tumors in nude mice; assay type: in vivo, mouse
From the text: as §2
In order to determine whether Hh pathway inhibitors can inhibit tumor growth in vivo, cAMP agonists were administered to mice that, as above, had subcutaneous medulloblastoma tumors. In one experiment, one group of mice received daily intraperitoneal injections of forskolin, while control mice received equivalent injections of vehicle (DMSO). The volumes of the tumors were regularly determined by measuring tumor dimensions with a caliper. In the mice treated with DMSO control, the tumors grew much more rapidly than in the mice treated with forskolin. […] In a similar experiment, H-forskolin or control vehicle was administered systemically to mice continuously, via an osmotic minipump that was implanted subcutaneously (and replaced regularly). Again in this experiment (FIG. 13), tumor size was smaller in the H-forskolin-treated mice than in the control mice.

[9] = test system: hair development; test: injection of pregnant female mouse, hair development in the fetus; assay type: in vivo
Protocol: For these experiments, 20 μl of forskolin in DMSO (50 mM) was injected into a pregnant female mouse daily for E14.5 to E17.5 intraperitoneally. The mouse was sacrificed at E17.5 and the fetuses were removed for gross inspection. The skin from each fetus was processed for H&E staining.

[10] = 10 μM, BrdU 2-3 DIV, fixed 3 DIV, typical experiment

Molecule: CC1=C2C[C@H]3[C@@H](CC=C4C[C@@H](O)CC[C@@]43C)[C@@H]2CC[C@]12O[C@@H]1C[C@H](C)CN[C@H]1[C@H]2C [cyclopamine]
- inhibition of proliferation of the medulloblastoma cells ([1]; 10 μM): strongly inhibit proliferation

Molecule: forskolin
- BCC tissue histology [2]: tumor shrinkage and/or cell death
- gli-1 expression [3]: strongly inhibit gli-1 expression
- inhibition of proliferation of the medulloblastoma cells ([1]; forskolin 50 μM): strongly inhibit proliferation
- inhibition of proliferation ([1]; forskolin 50 μM versus DMSO control): 95%
- percent proliferation (BrdU(+) cells) ([1]; forskolin 50 μM, typical experiment (FIG. 5)): 0.4%
- Xgal staining of tumors [4]: lower Xgal staining
- hair density and hair follicle structure [5]: decrease of hair density and abnormalities of hair follicle structure
- inhibition of tritiated thymidine incorporation [6]: 93%
- hair follicles, hair length, pigmentation and dermis thickness [7]: reduction of hair follicles, hair length, pigmentation and dermis thickness to levels comparable to the control
- tumor regression in one treated mouse ([8]; daily intraperitoneal injections): regressed, disappeared, and has not reappeared in over 60 days
- tumor growth ([8]; daily intraperitoneal injections, versus DMSO): did not grow excessively large
- hair development in the fetus ([9]; 20 μl of 50 mM in DMSO intraperitoneally daily E14.5 to E17.5): severe disruption of hair development
- number of hair follicles in fetal skin ([9]; 20 μl of 50 mM in DMSO intraperitoneally daily E14.5 to E17.5, some fetuses): great reduction of the number of hair follicles

Molecule: CC1=C2C(=O)[C@H]3[C@@H](CC=C4C[C@@H](O)CC[C@@]43C)[C@@H]2CC[C@]12O[C@@H]1C[C@H](C)CN[C@H]1[C@H]2C [jervine]
- inhibition of proliferation of the medulloblastoma cells ([1]; 10 μM): strongly inhibit proliferation
- percent proliferation (BrdU(+) cells) [1, 10]: 0.2%

Molecule: C[C@H]1CC[C@]2(NC1)O[C@H]1C[C@H]3[C@@H]4CC[C@H]5C[C@@H](O)CC[C@]5(C)[C@H]4CC[C@]3(C)[C@H]1[C@@H]2C [tomatidine]
- percent proliferation (BrdU(+) cells) [1, 10]: 5.9%

Molecule: C=CC1(C)CC(=O)C2(O)C(C)(O1)C(OC(=O)CCCN1CCN(C)CC1)C(O)C1C(C)(C)CCC(O)C12C (centres unmarked) [H-forskolin, 7-deacetyl-7-[O-(N-methylpiperazino)-gamma-butyryl]-forskolin]
- Xgal staining of tumors [4]: reduced Xgal staining
- inhibition of tritiated thymidine incorporation [6]: 91%
- tumor size ([8]; systemic, continuous via subcutaneous osmotic minipump, versus control mice): smaller
